According to patent publication US20260256792A1, “TREATMENT OF CHRONIC SPONTANEOUS URTICARIA BY ADMINISTERING (R)-2-[3-[4-AMINO-3-(2-FLUORO-4-PHENOXY-PHENYL)PYRAZOLO[3,4-D]PYRIMIDIN-1-YL]PIPERIDINE-1-CARBONYL]-4-METHYL-4-[4-(OXETAN-3-YL)PIPERAZIN-1-YL]PENT-2-ENENITRILE” (priority 2023, published 2026):

System: moderate-to-severe chronic spontaneous urticaria (CSU)
Assay: Phase 2 CSU study: itch severity score over 7 days (ISS7)
Format: in vivo, human
Details: ITT
From the text: The study comprises a 12 week, randomized, double-blind, placebo-controlled, multi-center, dose-ranging efficacy and safety phase, followed by a 40 week open label extension (OLE) phase (see FIG. 1). The study consists of three phases and an optional OLE phase. […] Clinically, CSU is characterized by the spontaneous and recurrent appearance of pruritic hives. The proposed primary endpoints were the UAS7 at Week 12 in EU and EU reference countries and the ISS7 in the US. Regardless of where a participant was from, all assessments were the same. The UAS7 score is a composite score containing both the HSS7 and the ISS7. This allowed a global assessment of the two key components of urticaria: hives and itch. […] The UAS is a validated PRO measure. […] The daily UAS scores range from 0 to 6 point/day. […] Patients were to complete the UAS using the e-diary. […] The following secondary endpoints were to be analyzed using the same approach as for the primary endpoint: • Change from baseline in UAS7 at Week 4 • Change from baseline in UAS7 at Week 12 (for US and US reference countries) • Change from baseline in ISS7 at Week 12 (except US and US reference countries) • Change from baseline in HSS7 at Week 12

CC(C)(C=C(C#N)C(=O)N1CCC[C@@H](n2nc(-c3ccc(Oc4ccccc4)cc3F)c3c(N)ncnc32)C1)N1CCN(C2COC2)CC1 [rilzabrutinib, (R)-2-[3-[4-amino-3-(2-fluoro-4-phenoxy-phenyl)pyrazolo[3,4-d]pyrimidin-1-yl]piperidine-1-carbonyl]-4-methyl-4-[4-(oxetan-3-yl)piperazin-1-yl]pent-2-enenitrile]
ISS7 Change difference for rilzabrutinib vs. placebo LS Mean (95% CI) (400 mg BID, Week 2): −2.27
ISS7 Change from baseline LS Mean (SE) (400 mg BID, Week 2): −5.68 (0.80)
ISS7 Post-baseline Mean (SD) (400 mg BID, Week 2): 10.40 (5.75)
ISS7 % Change difference for rilzabrutinib vs. placebo LS Mean (95% CI) (400 mg BID, Week 3): −18.44%
ISS7 % Change from baseline LS Mean (SE) (400 mg BID, Week 3): −40.88 (5.26) %
ISS7 Change difference for rilzabrutinib vs. placebo LS Mean (95% CI) (400 mg BID, Week 3): −2.60
ISS7 Change from baseline LS Mean (SE) (400 mg BID, Week 3): −6.68 (0.84)
ISS7 Post-baseline Mean (SD) (400 mg BID, Week 3): 9.21 (6.17)
ISS7 % Change difference for rilzabrutinib vs. placebo LS Mean (95% CI) (400 mg BID, Week 4): −18.54%
ISS7 % Change from baseline LS Mean (SE) (400 mg BID, Week 4): −44.30 (5.62) %
ISS7 Change difference for rilzabrutinib vs. placebo LS Mean (95% CI) (400 mg BID, Week 4): −2.62
ISS7 Change from baseline LS Mean (SE) (400 mg BID, Week 4): −7.24 (0.89)
ISS7 Post-baseline Mean (SD) (400 mg BID, Week 4): 8.12 (6.28)
ISS7 % Change difference for rilzabrutinib vs. placebo LS Mean (95% CI) (400 mg BID, Week 5): −9.84%
ISS7 % Change from baseline LS Mean (SE) (400 mg BID, Week 5): -43.1%
ISS7 Change difference for rilzabrutinib vs. placebo LS Mean (95% CI) (400 mg BID, Week 5): −1.32
ISS7 Change from baseline LS Mean (SE) (400 mg BID, Week 5): −6.89 (0.88)
ISS7 Post-baseline Mean (SD) (400 mg BID, Week 5): 8.53 (6.95)
ISS7 % Change difference for rilzabrutinib vs. placebo LS Mean (95% CI) (400 mg BID, Week 6): −13.75%
ISS7 % Change from baseline LS Mean (SE) (400 mg BID, Week 6): −42.18 (5.84) %
ISS7 Change difference for rilzabrutinib vs. placebo LS Mean (95% CI) (400 mg BID, Week 6): −1.99
ISS7 Change from baseline LS Mean (SE) (400 mg BID, Week 6): −6.87 (0.93)
ISS7 Post-baseline Mean (SD) (400 mg BID, Week 6): 8.62 (6.58)
ISS7 % Change difference for rilzabrutinib vs. placebo LS Mean (95% CI) (400 mg BID, Week 7): −18.93%
ISS7 % Change from baseline LS Mean (SE) (400 mg BID, Week 7): −47.79 (5.68) %
ISS7 Change difference for rilzabrutinib vs. placebo LS Mean (95% CI) (400 mg BID, Week 7): −2.77
ISS7 Change from baseline LS Mean (SE) (400 mg BID, Week 7): −7.77 (0.91)
ISS7 Post-baseline Mean (SD) (400 mg BID, Week 7): 8.03 (6.39)
ISS7 % Change difference for rilzabrutinib vs. placebo LS Mean (95% CI) (400 mg BID, Week 8): −20.00%
ISS7 % Change from baseline LS Mean (SE) (400 mg BID, Week 8): −52.80 (5.92) %
ISS7 Change difference for rilzabrutinib vs. placebo LS Mean (95% CI) (400 mg BID, Week 8): −2.86
ISS7 Change from baseline LS Mean (SE) (400 mg BID, Week 8): −8.47 (0.93)
ISS7 Post-baseline Mean (SD) (400 mg BID, Week 8): 7.18 (6.69)
ISS7 % Change difference for rilzabrutinib vs. placebo LS Mean (95% CI) (400 mg BID, Week 9): −20.94%
ISS7 % Change from baseline LS Mean (SE) (400 mg BID, Week 9): −51.80 (5.94) %
ISS7 Change difference for rilzabrutinib vs. placebo LS Mean (95% CI) (400 mg BID, Week 9): −2.77
ISS7 Change from baseline LS Mean (SE) (400 mg BID, Week 9): −8.27 (0.96)
ISS7 Post-baseline Mean (SD) (400 mg BID, Week 9): 7.44 (7.20)
ISS7 % Change difference for rilzabrutinib vs. placebo LS Mean (95% CI) (400 mg BID, Week 10): −10.95%
ISS7 % Change from baseline LS Mean (SE) (400 mg BID, Week 10): −48.75 (6.31) %
ISS7 Change difference for rilzabrutinib vs. placebo LS Mean (95% CI) (400 mg BID, Week 10): −1.72
ISS7 Change from baseline LS Mean (SE) (400 mg BID, Week 10): −8.01 (1.01)
ISS7 Post-baseline Mean (SD) (400 mg BID, Week 10): 8.06 (7.29)
ISS7 % Change difference for rilzabrutinib vs. placebo LS Mean (95% CI) (400 mg BID, Week 11): −15.82%
ISS7 % Change from baseline LS Mean (SE) (400 mg BID, Week 11): −49.45 (6.23) %
ISS7 Change difference for rilzabrutinib vs. placebo LS Mean (95% CI) (400 mg BID, Week 11): −2.07
ISS7 Change from baseline LS Mean (SE) (400 mg BID, Week 11): −7.93 (0.99)
ISS7 Post-baseline Mean (SD) (400 mg BID, Week 11): 7.76 (7.01)
ISS7 % Change difference for rilzabrutinib vs. placebo LS Mean (95% CI) (400 mg BID, Week 12): −13.69%
ISS7 % Change from baseline LS Mean (SE) (400 mg BID, Week 12): −50.27 (6.54) %
ISS7 Change difference for rilzabrutinib vs. placebo LS Mean (95% CI) (400 mg BID, Week 12): −1.75
ISS7 Change from baseline LS Mean (SE) (400 mg BID, Week 12): −8.06 (1.02)
ISS7 Post-baseline Mean (SD) (400 mg BID, Week 12): 7.61 (7.18)
ISS7 % Change difference for rilzabrutinib vs. placebo LS Mean (95% CI) (400 mg QPM, Week 1): −8.87%
ISS7 % Change from baseline LS Mean (SE) (400 mg QPM, Week 1): −19.33 (5.35) %
ISS7 Change difference for rilzabrutinib vs. placebo LS Mean (95% CI) (400 mg QPM, Week 1): −1.47
ISS7 Change from baseline LS Mean (SE) (400 mg QPM, Week 1): −3.47 (0.79)
ISS7 Post-baseline Mean (SD) (400 mg QPM, Week 1): 13.08 (4.46)
ISS7 % Change difference for rilzabrutinib vs. placebo LS Mean (95% CI) (400 mg QPM, Week 2): −5.64%
ISS7 % Change from baseline LS Mean (SE) (400 mg QPM, Week 2): −25.13 (5.32) %
ISS7 Change difference for rilzabrutinib vs. placebo LS Mean (95% CI) (400 mg QPM, Week 2): −0.86
ISS7 Change from baseline LS Mean (SE) (400 mg QPM, Week 2): −4.27 (0.81)
ISS7 Post-baseline Mean (SD) (400 mg QPM, Week 2): 12.44 (4.70)
ISS7 % Change difference for rilzabrutinib vs. placebo LS Mean (95% CI) (400 mg QPM, Week 3): −7.34%
ISS7 % Change from baseline LS Mean (SE) (400 mg QPM, Week 3): −29.78 (5.33) %
ISS7 Change difference for rilzabrutinib vs. placebo LS Mean (95% CI) (400 mg QPM, Week 3): −0.97
ISS7 Change from baseline LS Mean (SE) (400 mg QPM, Week 3): −5.06 (0.85)
ISS7 % Change difference for rilzabrutinib vs. placebo LS Mean (95% CI) (400 mg QPM, Week 4): −5.09%
ISS7 % Change from baseline LS Mean (SE) (400 mg QPM, Week 4): −30.86 (5.64) %
ISS7 Change difference for rilzabrutinib vs. placebo LS Mean (95% CI) (400 mg QPM, Week 4): −0.67
ISS7 Change from baseline LS Mean (SE) (400 mg QPM, Week 4): −5.29 (0.90)
ISS7 Post-baseline Mean (SD) (400 mg QPM, Week 4): 11.30 (4.76)
ISS7 % Change difference for rilzabrutinib vs. placebo LS Mean (95% CI) (400 mg QPM, Week 5): 0.86%
ISS7 % Change from baseline LS Mean (SE) (400 mg QPM, Week 5): −32.42 (5.42) %
ISS7 Change difference for rilzabrutinib vs. placebo LS Mean (95% CI) (400 mg QPM, Week 5): 0.08
ISS7 Change from baseline LS Mean (SE) (400 mg QPM, Week 5): −5.48 (0.88)
ISS7 Post-baseline Mean (SD) (400 mg QPM, Week 5): 11.00 (4.61)
ISS7 % Change difference for rilzabrutinib vs. placebo LS Mean (95% CI) (400 mg QPM, Week 6): −8.64%
ISS7 % Change from baseline LS Mean (SE) (400 mg QPM, Week 6): −37.07 (5.96) %
ISS7 Change difference for rilzabrutinib vs. placebo LS Mean (95% CI) (400 mg QPM, Week 6): −1.39
ISS7 Change from baseline LS Mean (SE) (400 mg QPM, Week 6): −6.28 (0.95)
ISS7 Post-baseline Mean (SD) (400 mg QPM, Week 6): 10.23 (5.19)
ISS7 % Change difference for rilzabrutinib vs. placebo LS Mean (95% CI) (400 mg QPM, Week 7): −9.66%
ISS7 % Change from baseline LS Mean (SE) (400 mg QPM, Week 7): −38.52 (5.84) %
ISS7 Change difference for rilzabrutinib vs. placebo LS Mean (95% CI) (400 mg QPM, Week 7): −1.37
ISS7 Change from baseline LS Mean (SE) (400 mg QPM, Week 7): −6.37 (0.93)
ISS7 Post-baseline Mean (SD) (400 mg QPM, Week 7): 10.60 (5.27)
ISS7 % Change difference for rilzabrutinib vs. placebo LS Mean (95% CI) (400 mg QPM, Week 8): −5.60%
ISS7 % Change from baseline LS Mean (SE) (400 mg QPM, Week 8): −38.39 (6.03) %
ISS7 Change difference for rilzabrutinib vs. placebo LS Mean (95% CI) (400 mg QPM, Week 8): −0.61
ISS7 Change from baseline LS Mean (SE) (400 mg QPM, Week 8): −6.22 (0.96)
